Measured values taken from ChEMBL document CHEMBL5543084, “Development of cannabidiol derivatives as potent broad-spectrum antibacterial agents with membrane-disruptive mechanism” (Eur J Med Chem, 2024).
In brackets after ≈: the same amount, converted by molar mass. Activity calls are given as the source filed them. The rule behind the calls is not given here.

Columns and labels:
[1] = test system: Lipopolysaccharide (LPS); experiment: Displacement of BODIPY-TR-cadaverine from Escherichia coli lipopolysaccharide (LPS) assessed as increase in fluorescence intensity at 4 times MIC measured after 30 mins by fluorescence spectrophotometric analysis; assay type: subcellular
[2] = test system: Escherichia coli; experiment: (§1) Bactericidal activity against Escherichia coli ATCC 25922 assessed as change in metabolic stress associated gene expression by measuring down-regulation of gale (DX983_RS06370) gene expression at 4 times of MIC concentration measured after 90 mins incubation by RNA sequencing (RNA-seq) study; assay type: functional, organism-based
[3] = test system: Staphylococcus aureus; experiment: Bactericidal activity against methicillin-resistant Staphylococcus aureus NCTC 10442 assessed as up-regulation of molecular functions related gene expression by measuring glutamate-ammonia ligase activity (GO:0004356) at 4 times of MIC concentration measured after 90 mins incubation by RNA sequencing (RNA-seq) study; assay type: functional, organism-based
[4] = test system: Escherichia coli; experiment: as §1, with “cell death” for “metabolic stress”, “CDPglycerol glycero-phosphotransferase (D1792_RS11350)” for “gale (DX983_RS06370)”; assay type: functional, organism-based
[5] = test system: Staphylococcus aureus; experiment: Antibacterial activity against Staphylococcus aureus ATCC 29213 assessed as inhibition of bacterial growth incubated for 24 hrs in presence of 1 mM Mg2+ by broth dilution method; assay type: functional
[6] = test system: Lipopolysaccharide (LPS); experiment: Displacement of BODIPY-TR-cadaverine from Escherichia coli lipopolysaccharide (LPS) assessed as increase in fluorescence intensity at 2 times MIC measured after 30 mins by fluorescence spectrophotometric analysis; assay type: subcellular
[7] = Cytotoxicity against human HepG2 cells assessed as viable cells at 6.25 microg/ml incubated for 24 hrs by CCK-8 assay; assay type: toxicity, cell-based; conditions: at 6.25 µg/mL, read-out: Activity
[8] = test system: Escherichia coli; experiment: as §1, with “cell death” for “metabolic stress”, “UDP-glucose 4-epimerase (galE, D1792_RS06370)” for “gale (DX983_RS06370)”; assay type: functional, organism-based
[9] = test system: Staphylococcus aureus; experiment: Antibacterial activity against Staphylococcus aureus ATCC 29213 assessed as inhibition of bacterial growth incubated for 24 hrs in presence of 20 uM Fe3+ by broth dilution method; assay type: functional
[10] = test system: Escherichia coli; experiment: as §1, with “cell death” for “metabolic stress”, “outer membrane lipoprotein-coding gene (slp, D1792_ RS14130; porin, D1792_RS05555)” for “gale (DX983_RS06370)”; assay type: functional, organism-based
[11] = test system: Escherichia coli; experiment: Antibacterial activity against Escherichia coli ATCC 25922 assessed as inhibition of bacterial growth incubated for 24 hrs in presence of 4.5 mM K+ by broth dilution method; assay type: functional
[12] = Cytotoxicity against mouse fibroblast NCTC clone 929 cells assessed as viable cells at 12.5 microg/ml incubated for 24 hrs by CCK-8 assay; assay type: toxicity, cell-based; conditions: NCTC clone 929 (L929) fibroblast cells, at 12.5 µg/mL, read-out: Activity
[13] = test system: Staphylococcus aureus; experiment: (§2) Bactericidal activity against methicillin-resistant Staphylococcus aureus NCTC 10442 assessed as change in cell death associated gene expression by measuring down-regulation of quorum sensing gene DX983_RS05700 gene expression at 4 times of MIC concentration measured after 90 mins incubation by RNA sequencing (RNA-seq) study; assay type: functional, organism-based
[14] = test system: Escherichia coli; experiment: Bactericidal activity against Escherichia coli ATCC 25922 assessed as down regulation of benzoate degradation gene expression at 4 times of MIC concentration measured after 90 mins incubation by RNA sequencing (RNA-seq) study; assay type: functional, organism-based
[15] = test system: Staphylococcus aureus; experiment: Antibacterial activity against methicillin-resistant Staphylococcus aureus N315 assessed as inhibition of bacterial growth incubated for 24 hrs by broth dilution method; assay type: functional
[16] = test system: Lipoteichoic acid; experiment: Displacement of BODIPY-TR-cadaverine from Bacillus subtilis lipoteichoic acid (LTA) assessed as increase in fluorescence intensity at 1 times MIC measured after 30 mins by fluorescence spectrophotometric analysis
[17] = test system: Cell membrane; experiment: Induction of outer membrane permeabilization in Pseudomonas aeruginosa ATCC 9027 assessed as increase in fluorescence intensity at 1 to 8 times MIC concentration by NPN-dye based fluorescence analysis; assay type: cell membranes
[18] = test system: Escherichia coli; experiment: Bactericidal activity against Escherichia coli ATCC 25922 assessed as change in metabolic stress associated gene expression by measuring down-regulation of gale (DX983_RS06370) gene expression at 4 times of MIC concentration measured after 90 mins incubation; assay type: functional, organism-based
[19] = test system: Klebsiella pneumoniae; experiment: Antibacterial activity against Klebsiella pneumoniae ATCC 10031 assessed as inhibition of bacterial growth incubated for 24 hrs in presence of 1 mM Mg2+ by broth dilution method; assay type: functional
[20] = test system: Staphylococcus aureus; experiment: Bactericidal activity against methicillin-resistant Staphylococcus aureus NCTC 10442 assessed as change in amino acid metabolism gene expression at 4 times of MIC concentration measured after 90 mins incubation by RNA sequencing (RNA-seq) study; assay type: functional, organism-based
[21] = test system: Escherichia coli; experiment: Antibacterial activity against Escherichia coli ATCC 25922 assessed as inhibition of bacterial growth incubated for 24 hrs in presence of 1 mM Mg2+ by broth dilution method; assay type: functional
[22] = test system: Staphylococcus aureus; experiment: Bactericidal activity against methicillin-resistant Staphylococcus aureus NCTC 10442 assessed as bacterial killing at 8 time of MIC concentration incubated for 0.5 hrs by time-kill assay; assay type: functional
[23] = test system: Staphylococcus aureus; experiment: (§3) Bactericidal activity against methicillin-resistant Staphylococcus aureus NCTC 10442 assessed as down-regulation of biological processes related gene expression by measuring pyrimidine ribonucleoside monophosphate metabolic (GO:0009173) at 4 times of MIC concentration measured after 90 mins incubation by RNA sequencing (RNA-seq) study; assay type: functional, organism-based
[24] = test system: Escherichia coli; experiment: Antibacterial activity against Escherichia coli ATCC 25922 assessed as inhibition of bacterial growth incubated for 24 hrs by broth dilution method; assay type: functional
[25] = test system: Staphylococcus aureus; experiment: as §3, with “glutamate” for “pyrimidine ribonucleoside monophosphate”, “process (GO:0006536)” for “(GO:0009173)”; assay type: functional, organism-based
[26] = test system: Klebsiella pneumoniae; experiment: Antibacterial activity against Klebsiella pneumoniae ATCC 10031 assessed as inhibition of bacterial growth incubated for 24 hrs by broth dilution method; assay type: functional
[27] = test system: Escherichia coli; experiment: Antibacterial activity against Escherichia coli ATCC 25922 assessed as inhibition of bacterial growth incubated for 24 hrs in presence of 19 uM Zn2+ by broth dilution method; assay type: functional
[28] = test system: Staphylococcus aureus; experiment: Antibacterial activity against Staphylococcus aureus ATCC 29213 assessed as inhibition of bacterial growth incubated for 24 hrs in presence of 2.5 mM Ca2+ by broth dilution method; assay type: functional
[29] = Cytotoxicity against human HepG2 cells assessed as viable cells at 12.5 microg/ml incubated for 24 hrs by CCK-8 assay; assay type: toxicity, cell-based; conditions: at 12.5 µg/mL, read-out: Activity
[30] = test system: Staphylococcus aureus; experiment: as §2, with “biofilm formation plfA (DX983_RS01360) and plfB (DX983_RS01355)” for “quorum sensing gene DX983_RS05700”; assay type: functional, organism-based
[31] = test system: Staphylococcus aureus; experiment: Bactericidal activity against methicillin-resistant Staphylococcus aureus NCTC 10442 assessed as up regulation of alanine/aspartate and glutamate metabolism gene expression at 4 times of MIC concentration measured after 90 mins incubation by RNA sequencing (RNA-seq) study; assay type: functional, organism-based
[32] = Cytotoxicity against mouse fibroblast NCTC clone 929 cells assessed as viable cells at 25 microg/ml incubated for 24 hrs by CCK-8 assay; assay type: toxicity, cell-based; conditions: NCTC clone 929 (L929) fibroblast cells, at 25 µg/mL, read-out: Activity
[33] = test system: Staphylococcus aureus; experiment: Bactericidal activity against methicillin-resistant Staphylococcus aureus NCTC 10442 assessed as bacterial killing at 8 time of MIC concentration incubated for 1 hr by time-kill assay relative to control; assay type: functional

For `C=C(C)[C@@H]1CCC(C)=C[C@H]1c1c(OCCCNC(=N)N)cc(CCCCC)cc1OCCCNC(=N)N`, the Activity [1] was 76.5%, the Activity [2] was “Active” and the Activity [3] was “Active”. The Activity [4] was “Active”, the MIC [5] was 1.56 µg/mL and the Activity [6] was 54%. For the same molecule, the viability at 24 h, 6.25 microg/ml [7] was 91.3%, the Activity [8] was “Active” and the MIC [9] was 0.39 µg/mL. The Activity [10] was “Active”, the MIC [11] was 1.56 µg/mL and the viability at 24 h, 12.5 microg/ml [12] was 80.4%. The Activity [13] was “Active”, the Activity [14] was “Active” and the MIC [15] was 0.39 µg/mL (≈ 0.761 µM). The Activity [16] was 11.2%, the Activity [17] was “Dose-Dependent Effect” and the Activity [18] was “Active”. The MIC [19] was 6.25 µg/mL, the Activity [20] was “Active” and the MIC [21] was 1.56 µg/mL. For the same molecule, the “inhibition (INH)” value [22] was 99.9%, the Activity [23] was “Active” and the MIC [24] was 3.12 µg/mL (≈ 6.09 µM). For the same molecule, the Activity [25] was “Active”, the MIC [26] was 1.56 µg/mL (≈ 3.04 µM) and the MIC [27] was 0.78 µg/mL. For the same molecule, the MIC [28] was 1.56 µg/mL, the viability at 24 h, 12.5 microg/ml [29] was 91.3% and the Activity [30] was “Active”. The Activity [31] was “Active”, the viability at 24 h, 25 microg/ml [32] was 68.7% and the “inhibition (INH)” value [33] was 100%.
